{"source": "patent US20240245703A1", "about": "“TOPICAL APPLICATION OF AGENTS TO REDUCE SUN SENSITIVITY AND IMPROVE TOPICAL PHOTODYNAMIC THERAPY” (Wright State University, priority 2021, published 2024)", "origin": "cited, not measured here"}
{"test_system": "aSMase", "conditions": "10 micromolar, PC12 cells, incubation time 0.5 h; % of corresponding control values; cited from earlier work", "units": {"Residual ASM Activity": "%"}}
{"smiles": "Clc1ccccc1CNCC1CCC(CNCc2ccccc2Cl)CC1", "note": "(centres unmarked) [AY9944, N-[(2-chlorophenyl)methyl]-1-[4-[[(2-chlorophenyl)methylamino]methyl]cyclohexyl]methanamine]", "Residual ASM Activity": 22.1}
{"smiles": "CN1[C@@H]2CC[C@H]1C[C@@H](OC(c1ccccc1)c1ccccc1)C2", "note": "[Benztropine]", "Residual ASM Activity": 12.7}
{"smiles": "CCN(CC)CCOc1ccc(C(=C(Cl)c2ccccc2)c2ccccc2)cc1", "note": "[Clomiphene]", "Residual ASM Activity": 13.0}
{"smiles": "CN(C)CCCN1c2ccccc2CCc2ccc(Cl)cc21", "note": "[Clomipramine]", "Residual ASM Activity": 21.8}
{"smiles": "CN(C)CCC=C1c2ccccc2C=Cc2ccccc21", "note": "[Cyclobenzaprine]", "Residual ASM Activity": 26.2}
{"smiles": "CC(NCCC(c1ccccc1)c1ccccc1)c1ccccc1", "note": "(centres unmarked) [Fendiline]", "Residual ASM Activity": 25.2}
{"smiles": "CNCCC(Oc1ccc(C(F)(F)F)cc1)c1ccccc1", "note": "(centres unmarked) [Fluoxetine]", "Residual ASM Activity": 13.0}
{"smiles": "OCCN1CCN(CC/C=C2/c3ccccc3Sc3ccc(C(F)(F)F)cc32)CC1", "note": "[Flupenthixol]", "Residual ASM Activity": 18.2}
{"smiles": "CNCCCC12CCC(c3ccccc31)c1ccccc12", "note": "[Maprotiline]", "Residual ASM Activity": 13.5}
{"smiles": "NCCC(Oc1ccc(C(F)(F)F)cc1)c1ccccc1", "note": "(centres unmarked) [Norfluoxetine]", "Residual ASM Activity": 22.5}
{"smiles": "Fc1ccc([C@@H]2CCNC[C@H]2COc2ccc3c(c2)OCO3)cc1", "note": "[Paroxetine]", "Residual ASM Activity": 31.7}
{"smiles": "C1CCC(C(CC2CCCCN2)C2CCCCC2)CC1", "note": "(centres unmarked) [Perhexiline]", "Residual ASM Activity": 8.5}
{"test_system": "aSMase", "conditions": "10 micromolar, PC12 cells, incubation time 6 h; % of corresponding control values; cited from earlier work", "units": {"Residual ASM Activity": "%"}}
{"smiles": "CCN(CC)CCCN(c1ccccc1)C1Cc2ccccc2C1", "note": "[Aprindine]", "Residual ASM Activity": 27.5}
{"smiles": "COc1ccc(CCN2CCC(Nc3nc4ccccc4n3Cc3ccc(F)cc3)CC2)cc1", "note": "[Astemizole]", "Residual ASM Activity": 14.3}
{"smiles": "COCC(=O)O[C@]1(CCN(C)CCCc2nc3ccccc3[nH]2)CCc2cc(F)ccc2[C@@H]1C(C)C", "note": "[Mibefradil]", "Residual ASM Activity": 20.8}
{"smiles": "OC1(c2ccc(Cl)c(C(F)(F)F)c2)CCN(CCCC(c2ccc(F)cc2)c2ccc(F)cc2)CC1", "note": "[Penfluridol]", "Residual ASM Activity": 22.0}
{"test_system": "aSMase", "conditions": "10 micromolar, PC12 cells, incubation time 24 h; % of corresponding control values; cited from earlier work", "units": {"Residual ASM Activity": "%"}}
{"smiles": "CCN(CCCc1ccccc1)CCCc1ccccc1", "note": "[Alverine]", "Residual ASM Activity": 21.7}
{"smiles": "CCCCc1oc2ccccc2c1C(=O)c1cc(I)c(OCCN(CC)CC)c(I)c1", "note": "[Amiodarone]", "Residual ASM Activity": 14.5}
{"smiles": "CC(C)COCC(CN(Cc1ccccc1)c1ccccc1)N1CCCC1", "note": "(centres unmarked) [Bepridil]", "Residual ASM Activity": 27.1}
{"smiles": "OC(CCN1CCCCC1)(c1ccccc1)C1CC2C=CC1C2", "note": "(centres unmarked) [Biperidene]", "Residual ASM Activity": 26.2}
{"smiles": "CCN(CC)CCNC(C(=O)OCCC(C)C)c1ccccc1", "note": "(centres unmarked) [Camylofin]", "Residual ASM Activity": 21.7}
{"smiles": "COc1ccccc1OCCNCC(O)COc1cccc2[nH]c3ccccc3c12", "note": "(centres unmarked) [Carvedilol]", "Residual ASM Activity": 22.4}
{"smiles": "Clc1ccc(C(OCCN2CCCCC2)c2ccccc2)cc1", "note": "(centres unmarked) [Cloperastine]", "Residual ASM Activity": 26.7}
{"smiles": "C[C@H]1[C@H]2CC[C@H]3[C@@H]4CC=C5C[C@@H](N(C)C)CC[C@]5(C)[C@H]4CC[C@]23CN1C", "note": "[Conessine]", "Residual ASM Activity": 20.8}
{"smiles": "CCN(CC)CCOC(=O)C(c1ccccc1)C1CCCCC1", "note": "(centres unmarked) [Drofenine]", "Residual ASM Activity": 20.8}
{"smiles": "CC[C@H]1CN2CCc3cc(OC)c(OC)cc3[C@@H]2C[C@@H]1C[C@H]1NCCc2cc(OC)c(OC)cc21", "note": "[Emetine]", "Residual ASM Activity": 0.4}
{"smiles": "CN(CCCN1c2ccccc2CCc2ccccc21)CC(=O)c1ccc(Cl)cc1", "note": "[Lofepramine]", "Residual ASM Activity": 19.2}
{"smiles": "CN(C)C(=O)C(CCN1CCC(O)(c2ccc(Cl)cc2)CC1)(c1ccccc1)c1ccccc1", "note": "[Loperamide]", "Residual ASM Activity": 24.4}
{"smiles": "CCN(CCCCOC(=O)c1ccc(OC)c(OC)c1)C(C)Cc1ccc(OC)cc1", "note": "(centres unmarked) [Mebeverine]", "Residual ASM Activity": 31.8}
{"test_system": "aSMase", "conditions": "10 micromolar, PC12 cells, incubation time 48 h; % of corresponding control values; cited from earlier work", "units": {"Residual ASM Activity": "%"}}
{"smiles": "CN(Cc1cc(Br)cc(Br)c1N)C1CCCCC1", "note": "[Bromhexine]", "Residual ASM Activity": 102.8}
{"smiles": "CC(C)/N=c1\\cc2n(-c3ccc(Cl)cc3)c3ccccc3nc-2cc1Nc1ccc(Cl)cc1", "note": "[Clofazimine]", "Residual ASM Activity": 23.7}
{"smiles": "Fc1ccc(C(c2ccc(F)cc2)N2CCN(C/C=C/c3ccccc3)CC2)cc1", "note": "[Flunarizine]", "Residual ASM Activity": 32.7}
